Our source for the Ki values is BindingDB's records for doi:10.1021/jm060653b (Pfizer, 2007).

The target of the assay is T1, cAMP and cAMP-inhibited cGMP 3',5'-cyclic phosphodiesterase 10A (Rattus norvegicus, UniProt Q9QYJ6).
T1 sequence (Q9QYJ6 whole entry): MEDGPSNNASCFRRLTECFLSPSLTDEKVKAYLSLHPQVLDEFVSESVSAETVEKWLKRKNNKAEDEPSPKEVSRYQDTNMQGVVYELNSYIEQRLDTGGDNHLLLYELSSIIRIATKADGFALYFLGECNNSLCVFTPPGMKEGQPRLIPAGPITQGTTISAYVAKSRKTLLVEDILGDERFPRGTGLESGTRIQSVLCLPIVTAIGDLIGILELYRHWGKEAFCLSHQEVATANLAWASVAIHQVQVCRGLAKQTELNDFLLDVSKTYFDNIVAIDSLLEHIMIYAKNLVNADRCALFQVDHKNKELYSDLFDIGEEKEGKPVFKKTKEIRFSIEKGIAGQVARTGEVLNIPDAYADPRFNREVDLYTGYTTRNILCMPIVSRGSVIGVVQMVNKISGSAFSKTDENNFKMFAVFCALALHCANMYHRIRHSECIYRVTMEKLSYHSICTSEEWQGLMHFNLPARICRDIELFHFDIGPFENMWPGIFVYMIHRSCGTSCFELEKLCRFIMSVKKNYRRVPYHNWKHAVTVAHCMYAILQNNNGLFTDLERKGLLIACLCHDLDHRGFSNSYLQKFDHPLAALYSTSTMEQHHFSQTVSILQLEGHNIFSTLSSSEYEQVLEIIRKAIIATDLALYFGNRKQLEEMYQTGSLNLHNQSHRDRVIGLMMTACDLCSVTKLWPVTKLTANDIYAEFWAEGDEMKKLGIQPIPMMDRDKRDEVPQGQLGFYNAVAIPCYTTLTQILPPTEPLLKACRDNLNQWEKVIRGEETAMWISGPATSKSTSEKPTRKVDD
Description: PDE Competitive Enzyme Inhibition Assay. The settings on record: pH 7.5; 22 °C. The text has this: PDE activity was monitored by measuring the hydrolysis of [3H]-cAMP to [3H]-AMP using a scintillation proximity assay (SPA). [3H]-AMP was captured by the SPA beads, and quantified on a TopCount plate reader.

As usually defined, the Ki is a dissociation constant, usually derived from enzyme kinetics or from competition with a known ligand. Low readings indicate tighter binding, high ones weaker binding. `COc1cc2ncnc(N3CC[C@@H](Oc4ccc(C(C)(C)C)cc4)C3)c2cc1OC` [(R)-4-[3-(4-tert-Butyl-phenoxy)-pyrrolidin-1-yl]-6,7-dimethoxy-quinazoline] returned a Ki of 100 nM.
